Assay results: US20040043959A1, “Combination therapies for treating methylthioadenosine phosphorylase deficient cells” (priority 2002, published 2004)

Biological target: T1, Human MTAP (Homo sapiens, UniProt Q13126)
T1 construct: six-histidine tag (His6) (N); made in house; host or cells: E. coli BL21 DE3
T1 sequence (Q13126 1-283): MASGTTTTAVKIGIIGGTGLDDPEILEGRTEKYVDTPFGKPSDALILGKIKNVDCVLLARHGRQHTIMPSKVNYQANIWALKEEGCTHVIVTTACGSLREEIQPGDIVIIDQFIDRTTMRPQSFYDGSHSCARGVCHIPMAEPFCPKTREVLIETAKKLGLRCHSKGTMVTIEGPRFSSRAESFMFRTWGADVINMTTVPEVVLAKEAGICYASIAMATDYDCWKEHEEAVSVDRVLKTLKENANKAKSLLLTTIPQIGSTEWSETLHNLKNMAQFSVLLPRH
Experiment: MTAP substrate assay, coupled spectrophotometric (adenine, xanthine oxidase)
Type: biochemical
Conditions: 2 nM MTAP; for activity at 50 µM: 10 min, compound 50 uM, relative to MTA at 50 uM, read-out: MT-A—50: initial velocity as a percentage of the initial velocity with MTA as substrate; for MT-A—10: initial velocity as a percentage of the initial velocity with MTA as substrate: compound 10 uM, relative to MTA at 10 uM
Procedure, shortened: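 Detection was xanthine oxidase-coupled (0.8 units/ml), reading adenine-derived absorbance at 305 nm over 10 min in potassium phosphate/DTT buffer at 37° C, with N-His6 enzyme purified from E. coli.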

| Structure (SMILES) | activity at 50 µM | MT-A—10: initial velocity as a percentage of the initial velocity with MTA as substrate |
| --- | --- | --- |
| CCC(C)CSC[C@H]1O[C@@H](n2cnc3c(N)ncnc32)[C@H](O)[C@@H]1O (stereo partly drawn) [2(G)(71), (2R, 3R, 4S, 5S)-2-(6-amino-9H-purin-9-yl)-5-{[(2-methylbutyl)-thio]methyl}tetrahydro-furan-3,4-diol] | 73% | 77% |
| Nc1cccc(SC[C@H]2O[C@@H](n3cnc4c(N)ncnc43)[C@H](O)[C@@H]2O)c1 [2(G)(72), (2R, 3R, 4S, 5S)-2-(6-amino-9H-purin-9-yl)-5-{[(3-aminophenyl)thio]-methyl}tetrahydrofuran-3,4-diol] | 38% | 33% |
| Nc1ncnc2c1ncn2[C@@H]1O[C@H](CSCc2ccccc2Cl)[C@@H](O)[C@H]1O [2(G)(73), (2R, 3R, 4S, 5S)-2-(6-amino-9H-purin-9-yl)-5-{[(2-chlorobenzyl)thio]-methyl}tetrahydrofuran-3,4-diol] | 21% | 30% |
| Nc1ncnc2c1ncn2[C@@H]1O[C@H](CSCc2cccc(C(F)(F)F)c2)[C@@H](O)[C@H]1O [2(G)(74)] | 22% | 23% |
| Nc1ncnc2c1ncn2[C@@H]1O[C@H](CSCCCO)[C@@H](O)[C@H]1O [2(G)(75)] | 39% | 32% |
| Nc1ncnc2c1ncn2[C@@H]1O[C@H](CSCc2ccc(Cl)cc2Cl)[C@@H](O)[C@H]1O [2(G)(76), (2R, 3R, 4S, 5S)-2-(6-amino-9H-purin-9-yl)-5-{[(2,4-dichlorobenzyl)-thio]methyl}tetrahydro-furan-3,4-diol] | 11% | 14% |
| CCCC(CCO)SC[C@H]1O[C@@H](n2cnc3c(N)ncnc32)[C@H](O)[C@@H]1O (some centres unmarked) [2(G)(77)] | 6% | 3% |
| Nc1ncnc2c1ncn2[C@@H]1O[C@H](CSCCCCCCO)[C@@H](O)[C@H]1O [2(G)(78)] | 6% | 3% |
| Cc1csc(SC[C@H]2O[C@@H](n3cnc4c(N)ncnc43)[C@H](O)[C@@H]2O)n1 [2(G)(79), (2R, 3R, 4S, 5S)-2-(6-amino-9H-purin-9-yl)-5-{[(4-methyl-1,3-thiozol-2-yl)thio]methyl}tetrahydrofuran-3,4-diol] | 45% | 38% |
| CCc1ccc(SC[C@H]2O[C@@H](n3cnc4c(N)ncnc43)[C@H](O)[C@@H]2O)cc1 [2(G)(80)] | 15% | 13% |
| Nc1ncnc2c1ncn2[C@@H]1O[C@H](CSCCc2c[nH]c3ccccc23)[C@@H](O)[C@H]1O [2(G)(81), (2R, 3R, 4S, 5S)-2-(6-amino-9H-purin-9-yl)-5-({[2-(1H-indol-3-yl)ethyl]thio}methyl)-tetrahydrofuran-3,4-diol] | 18% | 18% |
| Nc1ncnc2c1ncn2[C@@H]1O[C@H](CSc2ccccc2C(F)(F)F)[C@@H](O)[C@H]1O [2(G)(82), (2R, 3R, 4S, 5S)-2-(6-amino-9H-purin-9-yl)-5-({[2-(trifluoromethyl)-phenyl]thio}methyl)tetra-hydrofuran-3,4-diol] | 1% | 1% |
| COc1ccc(CSC[C@H]2O[C@@H](n3cnc4c(N)ncnc43)[C@H](O)[C@@H]2O)c(OC)c1 [2(G)(83), (2R, 3R, 4S, 5S)-2-(6-amino-9H-purin-9-yl)-5-{[(2,4-dimethoxybenzyl)-thio]methyl}tetrahydro-furan-3,4-diol] | 8% | 5% |
| Cc1cc(N)c(SC[C@H]2O[C@@H](n3cnc4c(N)ncnc43)[C@H](O)[C@@H]2O)cc1C [2(G)(84)] | 5% | 4% |
| Nc1ncnc2c1ncn2[C@@H]1O[C@H](CSc2nc3cccnc3s2)[C@@H](O)[C@H]1O [2(G)(85), (2R, 3R, 4S, 5S)-2-(6-amino-9H-purin-9-yl)-5-[([1,3]thiozolo[5,4-b]pyridin-2-ylthio)-methyl]tetrahydrofuran-3,4-diol] | 2% | 10% |
| COc1ccc2sc(SC[C@H]3O[C@@H](n4cnc5c(N)ncnc54)[C@H](O)[C@@H]3O)nc2c1 [2(G)(86), (2R, 3R, 4S, 5S)-2-(6-amino-9H-purin-9-yl)-5-{[(5-methoxy-1,3-benzothiozol-2-yl)thio]-methyl}tetrahydro-furan-3,4-diol] | 33% | 31% |
| Nc1ncnc2c1ncn2[C@@H]1O[C@H](CSc2cccs2)[C@@H](O)[C@H]1O [2(G)(87), (2R, 3R, 4S, 5S)-2-(6-amino-9H-purin-9-yl)-5-[(2-thienylthio)methyl]-tetrahydrofuran-3,4-diol] | 33% | 36% |
| CCOC(=O)CSC[C@H]1O[C@@H](n2cnc3c(N)ncnc32)[C@H](O)[C@@H]1O [2(G)(88), ethyl ({[(2S, 3S, 4R, 5R)-5-(6-amino-9H-purin-9-yl)-3,4-dihydroxytetrahydro-furan-2-yl]methyl}thio)acetate] | 33% | 25% |
| N#Cc1cccnc1SC[C@H]1O[C@@H](n2cnc3c(N)ncnc32)[C@H](O)[C@@H]1O [2(G)(89), 2-({[(2S, 3S, 4R, 5R)-5-(6-amino-9H-purin-9-yl)-3,4-dihydroxytetrahydro-furan-2-yl]methyl}thio)nicotinonitrile] | 5% | 3% |
| Nc1ncnc2c1ncn2[C@@H]1O[C@H](CSc2cccc(C(=O)O)c2)[C@@H](O)[C@H]1O [2(G)(90), 3-({[(2S, 3S, 4R, 5R)-5-(6-amino-9H-purin-9-yl)-3,4-dihydroxytetrahydro-furan-2-yl]methyl}thio)benzoic acid] | 8% | 3% |
| Nc1ncnc2c1ncn2[C@@H]1O[C@H](CSc2ccccc2[N+](=O)[O-])[C@@H](O)[C@H]1O [2(G)(91), (2R, 3R, 4S, 5S)-2-(6-amino-9H-purin-9-yl)-5-{[(2-nitrophenyl)thio]-methyl}tetrahydrofuran-3,4-diol] | 5% | 5% |
| COC(=O)CCSC[C@H]1O[C@@H](n2cnc3c(N)ncnc32)[C@H](O)[C@@H]1O [2(G)(92), methyl 3-({[(2S, 3S, 4R, 5R)-5-(6-amino-9H-purin-9-yl)-dihydroxytetra-hydrofuran-2-yl]-methyl}thio)propanoate] | 36% | 27% |
| Nc1ncnc2c1ncn2[C@@H]1O[C@H](CSCc2csc3ccccc23)[C@@H](O)[C@H]1O [2(G)(93), (2R, 3R, 4S, 5S)-2-(6-amino-9H-purin-9-yl)-5-{[(1-benzothien-3-ylmethyl)thio]methyl}tetrahydrofuran-3,4-diol] | 17% | 18% |
| Nc1ncnc2c1ncn2[C@@H]1O[C@H](CSc2nccnc2CCc2ccccc2)[C@@H](O)[C@H]1O [2(G)(94), (2R, 3R, 4S, 5S)-2-(6-amino-9H-purin-9-yl)-5-({[3-(2-phenylethyl)-pyrazin-2-yl]thio}methyl)tetrahydrofuran-3,4-diol] | 5% | 5% |
| Nc1ncnc2c1ncn2[C@@H]1O[C@H](CSc2ccc(C(=O)O)cc2)[C@@H](O)[C@H]1O [2(G)(95), 4-({[(2S, 3S, 4R, 5R)-5-(6-amino-9H-purin-9-yl)-3,4-dihydroxytetrahydro-furan-2-yl]methyl}thio)-benzoic acid] | 7% | 7% |
| Nc1ncnc2c1ncn2[C@@H]1O[C@H](CSc2ccccc2Cl)[C@@H](O)[C@H]1O [2(G)(96), (2R, 3R, 4S, 5S)-2-(6-amino-9H-purin-9-yl)-5-{((2-chlorophenyl)thio]-methyl}tetrahydrofuran-3,4-diol] | 6% | 5% |
| Nc1ncnc2c1ncn2[C@@H]1O[C@H](CSc2cc(Cl)ccc2Cl)[C@@H](O)[C@H]1O [2(G)(97), (2R, 3R, 4S, 5S)-2-(6-amino-9H-purin-9-yl)-5-{[(2,5-dichlorophenyl)-thio]methyl}tetrahydro-furan-3,4-diol] | 6% | 5% |
| Nc1ncnc2c1ncn2[C@@H]1O[C@H](CSc2cccc(Cl)c2)[C@@H](O)[C@H]1O [2(G)(98), (2R, 3R, 4S, 5S)-2-(6-amino-9H-purin-9-yl)-5-{[(3-chlorophenyl)thio]-methyl}tetrahydrofuran-3,4-diol] | 18% | 20% |
